From patent US20250296971A1, “GASTRIC INHIBITORY PEPTIDE RECEPTOR LIGANDS” (priority 2021, published 2025) come the findings set out here.

*1 amine or outer side, *2 acyl side, *3 side chain or, on linkers, in order; H or OH if unused. Where a SMILES comes first, the peptide text is derived from it. Bridges are numbered along the chain shown (N, C = ends). [ ]: non-standard residue; d: D form. The star is where a group is joined. NH(1-deoxy-D-glucityl) = OC[C@@H](O)[C@@H](O)[C@H](O)[C@@H](O)CN*; DOTA = O=C(O)CN1CCN(CC(=O)O)CCN(CC(=O)*)CCN(CC(=O)O)CC1; Trp(5-Cl) = N[C@@H](Cc1c[nH]c2ccc(Cl)cc12)C(=O)O; Pyridine(2,6-diCH2) = c1cc(C[*:1])nc(C[*:2])c1; Pro(4R-NH2) = N[C@H]1CN[C@H](C(=O)O)C1; Glutaryl = O=C(CCCC(=O)[*:2])[*:1]; X1 = O=C(CN1CCC(N[*:1])CC1)[*:2]; Api = NC1(C(=O)O)CCNCC1 Where only a bound is given, the exact number is not on record here.

A short description of data set [1]: Plasma stability assay, mouse plasma. Type of data set: in vitro ADME. To be noted: 37° C., % intact compound remaining after 4 h or 24 h. In a few lines: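 K2EDTA mouse or human plasma spiked with compound from 0.5 mM DMSO stock, incubated at 37 °C for 0, 4 and 24 h in duplicate. Proteins precipitated with acetonitrile/1% TFA, internal standard added; recovery and carry-over evaluated.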

Data set [2] has as its target T1, GIPR (CHO-K1-hGIPR cells) (Homo sapiens, UniProt P48546).
T1 construct: host or cells: CHO-K1
T1 sequence (P48546 22-466): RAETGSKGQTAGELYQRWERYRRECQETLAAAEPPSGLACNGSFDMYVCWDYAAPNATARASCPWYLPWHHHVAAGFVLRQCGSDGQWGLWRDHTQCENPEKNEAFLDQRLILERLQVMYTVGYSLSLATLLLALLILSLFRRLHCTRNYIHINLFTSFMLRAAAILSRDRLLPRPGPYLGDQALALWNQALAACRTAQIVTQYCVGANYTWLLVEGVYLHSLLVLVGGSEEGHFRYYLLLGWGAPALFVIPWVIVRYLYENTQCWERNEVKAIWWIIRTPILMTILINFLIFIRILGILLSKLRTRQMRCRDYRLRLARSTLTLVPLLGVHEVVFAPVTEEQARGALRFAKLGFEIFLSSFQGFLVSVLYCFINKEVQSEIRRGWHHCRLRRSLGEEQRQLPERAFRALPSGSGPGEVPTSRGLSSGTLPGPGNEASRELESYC
The data set can be described thus: FACS binding assay. To be noted: competition with 20 nM GIP-057, 4° C., 1 hour, read-out: pIC50 Category (converted). In a few lines: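 CHO-K1 cells expressing human GIPR, washed in PBS/1% FCS, then stained with 1 μg/mL APC-streptavidin for 30 min on ice.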
(In general: A flow cytometer gives signals particle by particle.)

The target of another data set is T2, Human GIPR (Homo sapiens, UniProt P48546).
T2 construct: host or cells: CHO-K1 or CHO-VGT
T2 sequence (P48546 22-466): T1 sequence (P48546 22-466)
The data set can be described thus: Radioligand binding assay, human GIPR. To be noted: 111In-labeled compound, 6 h, 37° C., read-out: pKD Category (converted). The procedure: In order to assess the affinity of ^111In-labeled compounds to the GIPR receptor of different species, a radioligand binding assay was established.
CHO-K1 cells (GenScript Biotech, #M00486) were stably transfected with the human GIPR. CHO-K1-hGIPR cells were cultured in Ham's F12 medium (Sigma-Aldrich, #N4888) including 10% fetal calf serum (FCS), 2 mM L-glutamine, 100 U/mL penicillin, 100 µg/mL streptomycin, 200 µg/mL Zeocin and 100 µg/mL HygromycinB. To evaluate the species cross-reactivity, CHO-VGT cells were transfected with the human, dog, rat and mouse GIPR (Inscreenex GmbH), which were cultured in DMEM/Ham's F12 Medium 1:1 (Biochrom, #F485) including 5% fetal calf serum (FCS), 2 mM L-glutamine, 100 U/mL penicillin and 100 μg/mL streptomycin. Cells were detached with Accutase (Biolegend, #BLD-423201) and counted using a particle counter (CASY Model TT; Schärfe Systems). Cell concentrations were adjusted to 3×10^5 mL^−1, and 1.000 μL of the suspension per well were dispensed into flat-clear-bottom 24 well plates.
Approximately 24 hours after re-seeding, the medium was aspirated and the cells were washed once with 700 μL assay medium (Ham's medium with 20 mM HEPES). […]
At the end of incubation time, cells were washed and subsequently harvested in 300 μL RIPA buffer containing PIC. Radioactivity of the cell lysate of each well was counted using a gamma counter (Perkin Elmer). […]

With `CC[C@H](C)[C@@H]1NC(=O)[C@H](CC(C)C)NC(=O)C2(CCN(C(=O)CN3CCN(CC(=O)O)CCN(CC(=O)O)CCN(CC(=O)O)CC3)CC2)NC(=O)[C@@H](NC(=O)[C@@H](CC(C)C)NC(=O)[C@H](CCC(=O)O)NC(=O)[C@@H]2C[C@@H](N)CN2C(=O)[C@H](Cc2c[nH]c3ccc(Cl)cc23)NC(=O)[C@H](Cc2c[nH]c3ccccc23)NC(=O)[C@H](CC(=O)O)NC(=O)CCCC(=O)NC[C@H](O)[C@@H](O)[C@H](O)[C@H](O)CO)CSCc2cccc(n2)CSC[C@@H](C(=O)NC2CCN(CC(=O)N[C@H](CCC(=O)NC[C@H](O)[C@@H](O)[C@H](O)[C@H](O)CO)C(N)=O)CC2)NC1=O` [GIP-001, AGLU-Glutar-Asp-Trp-5Clw-Tap-Glu-leu-[Cys(2Lut)-Apc(DOTA)-Leu-Ile-Cys]-APAc-glu(AGLU)-NH2] ({NH(1-deoxy-D-glucityl)-Glutaryl}-DW[Trp(5-Cl)][Pro(4R-NH2)]E[dL]C[Api](DOTA)LIC[X1][dE](NH(1-deoxy-D-glucityl))-NH2; linker 7-11 via Pyridine(2,6-diCH2)), the “Mouse plasma stability category” value in data set [1] is recorded as “A (>80% intact after 24 hours)”. In addition, the IC50 in data set [2] was under 10 nM. Besides, the Kd at Human GIPR is under 0.316 nM.
